Measured values from patent US20250147039A1, “Compounds for complexation of rare earth elements and/or s-, p-, d- block metals, their coordination compounds, peptide conjugates, method of their preparation and use thereof” (USTAV ORGANICKE CHEMIE A BIOCHEMIE AV CR V.V.I., priority 2021, published 2025).

Legend:
[1] = Formation of 1,5-cz-[M(Lig)] from Lig and M^III ions (metal dependent click-zip) (Charts 4, 5); format: physicochemical; conditions: MOPS/NaOH buffer pH 7.0, TD728, TD827 in 50% i-PrOH; for conversion to 1,5-cz-[M(Lig)], Y^III: TD714 sum of two diastereoisomers
[2] = Formation of 1,5-cz-[Ln(Lig)] from Lig and Ln^III ions (metal dependent click-zip), MOPS/NaOH buffer pH 7.0, analytical HPLC (Charts 1, 2); conditions: MOPS/NaOH buffer pH 7.0

conversion to 1,5-cz-[M(Lig)], Sc^III ([1]; 1 week at 80° C.) [%]	conversion to 1,5-cz-[M(Lig)], Y^III ([1]; 1 week at 80° C.) [%]	conversion to 1,5-cz-[M(Lig)], Sc^III ([1]; 1 hour at 80° C.) [%]	conversion to 1,5-cz-[M(Lig)], Y^III ([1]; 1 hour at 80° C.) [%]	conversion to 1,5-cz-[Ln(Lig)], Ce^III ([2]; after 1 week at 80° C.) [%]	conversion to 1,5-cz-[Ln(Lig)], Ce^III ([2]; after 1 hour at 80° C.) [%]	conversion to 1,5-cz-[Ln(Lig)], Dy^III ([2]; after 1 week at 80° C.) [%]	conversion to 1,5-cz-[Ln(Lig)], Dy^III ([2]; after 1 hour at 80° C.) [%]	conversion to 1,5-cz-[Ln(Lig)], Er^III ([2]; after 1 week at 80° C.) [%]	conversion to 1,5-cz-[Ln(Lig)], Er^III ([2]; after 1 hour at 80° C.) [%]	conversion to 1,5-cz-[Ln(Lig)], Eu^III ([2]; after 1 week at 80° C.) [%]	conversion to 1,5-cz-[Ln(Lig)], Eu^III ([2]; after 1 hour at 80° C.) [%]	conversion to 1,5-cz-[Ln(Lig)], Gd^III ([2]; after 1 week at 80° C.) [%]	conversion to 1,5-cz-[Ln(Lig)], Gd^III ([2]; after 1 hour at 80° C.) [%]	conversion to 1,5-cz-[Ln(Lig)], Ho^III ([2]; after 1 week at 80° C.) [%]	conversion to 1,5-cz-[Ln(Lig)], Ho^III ([2]; after 1 hour at 80° C.) [%]	conversion to 1,5-cz-[Ln(Lig)], La^III ([2]; after 1 week at 80° C.) [%]	conversion to 1,5-cz-[Ln(Lig)], La^III ([2]; after 1 hour at 80° C.) [%]	conversion to 1,5-cz-[Ln(Lig)], Lu^III ([2]; after 1 week at 80° C.) [%]	conversion to 1,5-cz-[Ln(Lig)], Lu^III ([2]; after 1 hour at 80° C.) [%]	SMILES	also measured
31	95	6	30	60	0	96	20	96	46	93	6	91	7	96	31	73	0	96	85	C#Cc1cccc(CN2CCN(CC(=O)O)CCN(Cc3cc(N(C)C)cc(CN=[N+]=[N-])n3)CCN(CC(=O)O)CC2)n1 [TD1176]	conversion to 1,5-cz-[Ln(Lig)], Nd^III ([2]; after 1 week at 80° C.): 85%; conversion to 1,5-cz-[Ln(Lig)], Nd^III ([2]; after 1 hour at 80° C.): 2%; conversion to 1,5-cz-[Ln(Lig)], Pr^III ([2]; after 1 week at 80° C.): 82%; conversion to 1,5-cz-[Ln(Lig)], Pr^III ([2]; after 1 hour at 80° C.): 1%; conversion to 1,5-cz-[Ln(Lig)], Sm^III ([2]; after 1 week at 80° C.): 92%; conversion to 1,5-cz-[Ln(Lig)], Sm^III ([2]; after 1 hour at 80° C.): 5%; conversion to 1,5-cz-[Ln(Lig)], Tb^III ([2]; after 1 week at 80° C.): 94%; conversion to 1,5-cz-[Ln(Lig)], Tb^III ([2]; after 1 hour at 80° C.): 14%; conversion to 1,5-cz-[Ln(Lig)], Tm^III ([2]; after 1 week at 80° C.): 96%; conversion to 1,5-cz-[Ln(Lig)], Tm^III ([2]; after 1 hour at 80° C.): 63%; conversion to 1,5-cz-[Ln(Lig)], Yb^III ([2]; after 1 week at 80° C.): 97%; conversion to 1,5-cz-[Ln(Lig)], Yb^III ([2]; after 1 hour at 80° C.): 75%
2	87	0	2	20	0	81	1	95	2	59	1	61	1	89	2	22	0	99	6	[N-]=[N+]=NCc1cccc(CN2CCN(CC(=O)O)CCN(Cc3cccc(C#CC45CC6CC(CC(C6)C4)C5)n3)CCN(CC(=O)O)CC2)n1 [TD992]	conversion to 1,5-cz-[Ln(Lig)], Nd^III ([2]; after 1 week at 80° C.): 40%; conversion to 1,5-cz-[Ln(Lig)], Nd^III ([2]; after 1 hour at 80° C.): 0%; conversion to 1,5-cz-[Ln(Lig)], Pr^III ([2]; after 1 week at 80° C.): 33%; conversion to 1,5-cz-[Ln(Lig)], Pr^III ([2]; after 1 hour at 80° C.): 0%; conversion to 1,5-cz-[Ln(Lig)], Sm^III ([2]; after 1 week at 80° C.): 55%; conversion to 1,5-cz-[Ln(Lig)], Sm^III ([2]; after 1 hour at 80° C.): 1%; conversion to 1,5-cz-[Ln(Lig)], Tb^III ([2]; after 1 week at 80° C.): 73%; conversion to 1,5-cz-[Ln(Lig)], Tb^III ([2]; after 1 hour at 80° C.): 1%; conversion to 1,5-cz-[Ln(Lig)], Tm^III ([2]; after 1 week at 80° C.): 98%; conversion to 1,5-cz-[Ln(Lig)], Tm^III ([2]; after 1 hour at 80° C.): 4%; conversion to 1,5-cz-[Ln(Lig)], Yb^III ([2]; after 1 week at 80° C.): 99%; conversion to 1,5-cz-[Ln(Lig)], Yb^III ([2]; after 1 hour at 80° C.): 5%
